{"source": "patent US20130252988A1", "about": "“COMPOSITIONS AND METHODS FOR TREATING MYELOFIBROSIS” (TARGEGEN, INC., priority 2010, published 2013)", "key": {"platelet count": {"test_system": "platelet count", "assay": "Thrombocytosis: platelet count", "assay_type": "in vivo, human", "conditions": "for Subjects who achieved a normal platelet count: after 6 cycles; for Subjects with a normal platelet count: following 12 cycles"}, "[1]": {"test_system": "subjects with myelofibrosis (constitutional symptoms)", "assay": "Constitutional symptoms rated by subjects (early satiety, fatigue, night sweats, cough, pruritus)", "assay_type": "in vivo", "description": "The data here reflected changes from symptoms present at baseline. […] Severity was rated by subjects on a scale of 1-10: 0=absent; 1-3=mild; 4-7=moderate; 8-10=severe. Improved=downgrade to absent or to mild or moderate from more severe rating at baseline.\nSymptoms were categorized as “absent” (score=0), “mild” (score=1-3). “moderate” (score=4-7), or “severe” (score=8-10)."}, "JAK2V617F allele burden": {"test_system": "JAK2V617F allele burden", "assay": "JAK2V617F allele burden in the granulocyte fraction of peripheral blood", "assay_type": "in vivo, human", "protocol": "Responses were measured every 4 weeks per International Working Group for MPN Research and Treatment (IWG-MRT) criteria (Tefferi A et al., Blood 108:1497-1503, 2006). Assessment of bone marrow histology was performed at baseline and every 24 weeks of therapy. Changes in JAK2V617F allele burden in the granulocyte fraction of peripheral blood were measured as previously described (Kittur J et al., Cancer 109:2279-2284, 2007); the assessments were at baseline and every 4 weeks during the first 6 cycles, and every 6th cycle of therapy in the extension study."}, "[2]": {"conditions": "MTD cohort, after 1 cycle (n=12)"}, "[3]": {"conditions": "MTD cohort, after 1 cycle, 8 subjects at baseline"}, "[4]": {"conditions": "MTD cohort, after 6 cycles (n=16)"}}, "note": "“Also recorded” adds a separate entry of the source. Where a name gives a salt, the structure may show the parent alone.", "data": [{"smiles": "Cc1cnc(Nc2ccc(OCCN3CCCC3)cc2)nc1Nc1cccc(S(=O)(=O)NC(C)(C)C)c1", "note": "[TG101348, N-tert-butyl-3-[(5-methyl-2-{[4-(2-pyrrolidin-1-ylethoxy)phenyl]amino}pyrimidin-4-yl)amino]benzenesulfonamide dihydrochloride monohydrate]", "values": [{"measurement": "Subjects who achieved a normal platelet count", "setting": "platelet count; MTD cohort (7 with baseline thrombocytosis)", "value": 100, "unit": "%"}, {"measurement": "Subjects who achieved a normal platelet count", "setting": "platelet count; across doses (10 with baseline thrombocytosis)", "value": 90, "unit": "%"}, {"measurement": "Effect on platelet counts in thrombocytosis", "setting": "platelet count; baseline platelet count >450×10^9/L", "value": "able to reduce platelet counts"}, {"measurement": "Subjects with a normal platelet count", "setting": "platelet count; MTD cohort, all of 6", "value": 6, "unit": "subjects"}, {"measurement": "Subjects with a normal platelet count", "setting": "platelet count; across doses (7 of 8)", "value": 88, "unit": "%"}, {"measurement": "Subjects who reported new onset of =1 symptom during the study", "setting": "[1]; FIG. 4", "value": 18, "unit": "subjects"}, {"measurement": "Night sweats: subjects with complete resolution", "setting": "[1]; MTD cohort, after 1 cycle", "value": 64, "unit": "%"}, {"measurement": "Cough: subjects reporting improvement", "setting": "[1]; [2]", "value": 75, "unit": "%"}, {"measurement": "Cough: subjects with complete resolution", "setting": "[1]; [2]", "value": 67, "unit": "%"}, {"measurement": "Pruritus: subjects with complete resolution", "setting": "[1]; [3]", "value": 50, "unit": "%"}, {"measurement": "Pruritus: subjects with improvement", "setting": "[1]; [3]", "value": 75, "unit": "%"}, {"measurement": "Early satiety: subjects with complete resolution", "setting": "[1]; MTD cohort, after 2 cycles (n=27)", "value": 56, "unit": "%"}, {"measurement": "Night sweats: subjects with complete resolution", "setting": "[1]; MTD cohort, after 6 cycles (n=9)", "value": 89, "unit": "%"}, {"measurement": "Fatigue: subjects reporting improvement", "setting": "[1]; [4]", "value": 63, "unit": "%"}, {"measurement": "Fatigue: subjects with complete resolution", "setting": "[1]; [4]", "value": 25, "unit": "%"}, {"measurement": "Effect on MF-associated constitutional symptoms", "setting": "[1]; early satiety, fatigue, cough, pruritus, night sweats, baseline versus last visit, dihydrochloride monohydrate", "value": "clinically significant benefit or resolution of constitutional symptoms; also recorded: able to improve the MF-associated constitutional symptoms; also recorded: remarkable activity against MF-associated constitutional symptoms, pruritus and cachexia"}, {"measurement": "Subjects with new-onset symptoms resolved by last follow-up visit", "setting": "[1]; of the 18 with new onset, FIG. 4", "value": 12, "unit": "subjects"}, {"measurement": "Pruritus in one subject", "setting": "[1]; subject with JAK2V617F-positive PMF, started at 680 mg/day", "value": "complete resolution of pruritus"}, {"measurement": "Subjects exhibiting no change in allele burden", "setting": "JAK2V617F allele burden; 12 cycles, 100% allele burden at baseline", "value": 2}, {"measurement": "Median JAK2V617F allele burden", "setting": "JAK2V617F allele burden; 23 subjects with baseline >20% (baseline median 60%), after 6 cycles, range 4%-100%", "value": 31, "unit": "%"}, {"measurement": "Median JAK2V617F allele burden", "setting": "JAK2V617F allele burden; 23 subjects with baseline >20% (baseline median 60%), after 12 cycles, range 7%-100%", "value": 32, "unit": "%"}, {"measurement": "Patients with =50% reduction in VF allele burden", "setting": "JAK2V617F allele burden; 48 evaluable VF-positive patients (21 patients), last available follow-up", "value": 44, "unit": "%"}, {"measurement": "Median decrease in granulocyte mutant allele burden", "setting": "JAK2V617F allele burden; 48 evaluable VF-positive patients, last available follow-up", "value": 48, "unit": "%"}, {"measurement": "Median JAK2V617F allele burden", "setting": "JAK2V617F allele burden; all mutation-positive subjects (baseline median 20%), after 6 cycles, range 0%-100%", "value": 17, "unit": "%"}, {"measurement": "Median JAK2V617F allele burden", "setting": "JAK2V617F allele burden; all mutation-positive subjects (baseline median 20%), after 12 cycles, range 0%-100%", "value": 19, "unit": "%"}, {"measurement": "Change in JAK2V617F allele burden versus pre-study baseline", "setting": "JAK2V617F allele burden; all mutation-positive subjects (n=51), after 6 cycles (p=0.04) and 12 cycles (p=0.01)", "value": "significant decrease"}, {"measurement": "Subjects with =50% decrease in JAK2V617F", "setting": "JAK2V617F allele burden; baseline >20%, 12 cycles, 7 subjects", "value": 39, "unit": "%"}, {"measurement": "Subjects exhibiting an increase in allele burden", "setting": "JAK2V617F allele burden; baseline >20%, 12 cycles, Three subjects (7%, 18%, and 22%)", "value": 17, "unit": "%"}, {"measurement": "Median decrease in JAK2V617F allele burden", "setting": "JAK2V617F allele burden; baseline >20%, 18 subjects who completed 12 cycles, range 29% to 82%", "value": 50, "unit": "%"}, {"measurement": "Subjects exhibiting an increase in JAK2V617F allele burden", "setting": "JAK2V617F allele burden; baseline >20%, after 6 cycles, 4 subjects (18%, 21%, 30%, and 58%)", "value": 20, "unit": "%"}, {"measurement": "Subjects with =50% decrease in JAK2V617F allele burden", "setting": "JAK2V617F allele burden; baseline >20%, after 6 cycles, 9 subjects", "value": 45, "unit": "%"}, {"measurement": "Subjects exhibiting a decrease in JAK2V617F allele burden", "setting": "JAK2V617F allele burden; baseline >20%, after 6 cycles, 16 of 20 subjects", "value": 80, "unit": "%"}, {"measurement": "Median decrease in JAK2V617F allele burden", "setting": "JAK2V617F allele burden; baseline >20%, after 6 cycles, 16 subjects, range 6% to 96%", "value": 61, "unit": "%"}, {"measurement": "Patients with =50% reduction in VF allele burden", "setting": "JAK2V617F allele burden; group who started treatment at =680 mg", "value": 48, "unit": "%"}, {"measurement": "Change in JAK2V617F allele burden versus pre-study baseline", "setting": "JAK2V617F allele burden; subgroup with baseline allele burden >20% (n=23), after 6 cycles (p=0.002) and 12 cycles (p=0.002), dihydrochloride monohydrate", "value": "significant and even more pronounced decrease; also recorded: significant decrease"}, {"measurement": "Subjects with decreased JAK2 V617F allele burden", "setting": "JAK2V617F allele burden; subjects with baseline >20% (N=22), FIG. 6", "value": 59, "unit": "%"}]}]}
